Values of other authors in US7858334B2, “Degradation of hydrophobic ester pesticides and toxins” (priority 2002, dated 2010).

In the case of `CC1(C)C(C=C(Cl)Cl)C1C(=O)OCc1cccc(Oc2ccccc2)c1` (racemic) [permethrin, 3-phenoxybenzyl(1RS)-cis, trans-3-(2,2-dichlorovinyl)-2,2-dimethylcyclopropane carboxylate], the “published solubility in aqueous solution” value is given as 0.5 µM.
